{
  "source": "patent US20250205268A1",
  "about": "“TREATMENT OF VIRUSES WITH ANTIVIRAL NUCLEOSIDES” (priority 2021, published 2025)",
  "key": {"[1]": {"system": "SARS-CoV-2"}, "[2]": {"system": "SARS-CoV-2", "conditions": "in vivo"}},
  "data": [
    {"smiles": "CC(C)C(=O)OC[C@H]1O[C@@H](n2ccc(NO)nc2=O)[C@H](O)[C@@H]1O", "note": "[Compound A, {(2R,3S,4R,5R)-3,4-dihydroxy-5-[4-(hydroxyimino)-2-oxo-3,4-dihydropyrimidin-1 (2H)-yl]oxolan-2-yl}methyl 2-methylpropanoate]", "values": [
      {"measurement": "mean SARS-CoV-2 viral RNA mutation rates per 10,000 nucleotides", "setting": "[1]; 800 mg, end of therapy", "result": "5.9 per 10,000 nucleotides"},
      {"measurement": "Drug-related adverse events", "setting": "[1]; human, in vivo", "result": 11.0, "unit": "%"},
      {"measurement": "participants hospitalized or died through Day 29", "setting": "[2]", "result": "~3", "unit": "%"},
      {"measurement": "percentage of mutations in viral RNA post-treatment at Day 5", "setting": "[2]", "result": "highest percentage of mutations"}
    ]}
  ]
}
